Data on two molecules can be found in patent EP0251194A1, “Use of carbocyclic and heterocyclic condensed dihydropyridines for the preparation of cardioprotective remedies and heterocyclic and carbocyclic condensed dihydropyridines and methods and intermediates for their preparation” (BOEHRINGER INGELHEIM KG, priority 1986, dated 1988).

For assay [1], the system named is myocardiale Radio-Calciumaufnahme. Kind of assay: Inhibition of isoprenaline-induced myocardial radio-calcium uptake in conscious rats (method of Arndts). Format: in vivo, Ratten. Conditions: peroral administration, dose that inhibits by 50 % the myocardial radio-calcium uptake caused by 30 mg/kg s.c. isoprenaline. The text has this:
Bekanntlich ist der myocardiale Ca⁺² -Gehalt ein Maß für die hypoxische bzw. die durch toxische Catecholamindosen hervorgerufene Herzschädigung (Higgins et al., Mol. Cell. Cardiol. 10: 427 - 438, 1984; Nakanishi et al., Am. J. Physiol. 242: 437 - 449, 1982; Fleckenstein, A., Vorträge der Erlanger Physiol. Tagung 1970, Ed. Keidel, Springer Verlag Berlin, Heidelberg, New York, 1971). Umgekehrt ist die Inhibition der hypoxischen oder Isoprenalin-bedingten mycardialen Calciumaufnahme ein Maß für die cardioprotektive Effektivität von Calciumantagonisten (Fleckenstein s.o.), von Calmodulininhibitoren (Higgins) und anderen Pharmaka, z.B. Betaadrenolytika (Arndts, Arzneimittelforschung 25: 1279 - 1284, 1975).
Die cardioprotektive Wirkung wurde an wachen Ratten nach subcutaner oder peroraler Wirkstoffgabe anhand der von Arndts (s.o.) beschriebenen Methode festgestellt, und die Wirkungsstärke der Testsubtanzen als H₅₀-Wert angegeben; dieser Wert entspricht der Dosis, die die durch eine Gabe von 30 (mg/kg; s.c.) Isoprenalin bedingte myocardiale Radio-Calciumaufnahme zu 50 % hemmt.

A further assay deals with Isoliertes Rattenherz. The assay can be described thus: Isolated Langendorff heart, oxygen deficiency by reduced perfusion flow, time to onset of regular contractions. Details: species or system Ratten. The settings on record: isolated rat heart; infusion of test substance during the O2 deficiency state (60 min, flow reduced 100-fold). As for the experimental part:
Die Untersuchungen am isolierten Langendorff-Herzen wurden nach O. Langendorff, Pflügers Arch. 61, 291 (1895) mit kleinen Abwandlungen ausgeführt:
Isoliertes Rattenherz, retrograde Perfusion über die Aorta. Elektrische Stimulation (300 Impulse/min, Impulsdauer 1msec). Messung des linksventrikulär entwickelten Druckes mit flüssigkeitsgefülltem Latex-Ballon. Nach 20 min Aequilibrierung Auslösen eines Sauerstoff-Mangelzustandes mit 100-fach vermindertem Fluß durch Drosselung des Perfusionsflusses für 60 min, Rückkehr zu normalem Fluß bewirkt starken Anstieg der Grundspannung, unter Kontrollbedingungen setzt die Herztätigkeit nach 6 - 7 min unregelmäßig wieder ein, nach 15 - 18 min rascher Übergang zu regelmäßigen Kontraktionen. Cardioprotektiv wirksame Verbindungen verkürzen die Zeit bis zum Einsetzen regelmäßiger Kontraktionen. Infusion der Testsubstanz (gelöst in unbegastem Perfusionsmedium) während des O₂-Mangelzustandes herznah in das Perfusionssystem.
Die getesteten Verbindungen ergaben bei Anwendung in der unten angegebenen Konzentration eine signifikante Reduktion der Zeit bis zum Einsetzen regelmäßiger Kontraktionen.

For `CCCCNC(=O)C(C1=NCCc2cc(OC)c(OC)cc21)c1ccccc1` (stereo not drawn) [Verbindung B], in assay [1], the H50-Wert was 0.50. The “Konzentration (signifikante Reduktion der Zeit bis zum Einsetzen regelmäßiger Kontraktionen)” value in the assay with Isoliertes Rattenherz is reported as 13,3 ug/ml. Turning to `COc1cc2c(cc1OC)C(=C(C(=O)NCCN1CCOCC1)c1ccccc1)NCC2` [Verbindung A], the H50-Wert in assay [1] was found to be 0.73.
